Columns and labels:
[1] = Cytotoxicity against human MT2 cells assessed as reduction in cell viability after 5 days by XTT assay; assay type: cell-based
[2] = Cytotoxicity against human HepG2 cells assessed as reduction in cell viability after 5 days by XTT assay; assay type: cell-based
[3] = tested on: Human immunodeficiency virus 1; experiment: Antiviral activity against wild type HIV1 3B infected in human MT2 cells assessed as virus-induced cytopathic effect after 5 days by XTT assay; assay type: functional, organism-based; details: Human immunodeficiency virus 1, 3B, MT2, 120 h
[4] = tested on: Human immunodeficiency virus 1; experiment: Fold resistance, ratio of EC50 for HIV1 3B harboring protease I84V/L90M mutant infected in human MT2 cells to EC50 for wild type HIV1 3B infected in human MT2 cells; assay type: functional
[5] = tested on: Human immunodeficiency virus 1; experiment: Fold resistance, ratio of EC50 for HIV1 3B harboring protease M46I/I50V mutant infected in human MT2 cells to EC50 for wild type HIV1 3B infected in human MT2 cells; assay type: functional
[6] = tested on: Human immunodeficiency virus 1; experiment: Fold resistance, ratio of EC50 for HIV1 3B harboring protease G48V/I54V/V82S mutant infected in human MT2 cells to EC50 for wild type HIV1 3B infected in human MT2 cells; assay type: functional
[7] = tested on: Human immunodeficiency virus 1; experiment: Fold resistance, ratio of EC50 for HIV1 3B harboring protease M46I/V82T/L90M mutant infected in human MT2 cells to EC50 for wild type HIV1 3B infected in human MT2 cells; assay type: functional
[8] = tested on: Human immunodeficiency virus 1; experiment: Fold resistance, ratio of EC50 for HIV1 3B harboring protease D30N/54V/L90M mutant infected in human MT2 cells to EC50 for wild type HIV1 3B infected in human MT2 cells; assay type: functional
[9] = tested on: Human immunodeficiency virus 1; experiment: Fold resistance, ratio of EC50 for HIV1 3B harboring protease G48V/V82A/I84V/L90M mutant infected in human MT2 cells to EC50 for wild type HIV1 3B infected in human MT2 cells; assay type: functional
Protease = Protease (Human immunodeficiency virus 1, UniProt Q9YQ12); experiment: Inhibition of HIV1 protease using fluorogenic hexapeptide substrate (2-aminobenzoyl)Thr-Ile-Nle-(p-nitro)Phe-Gln-Arg by fluorimeter
Sequence of Protease (Q9YQ12 whole entry): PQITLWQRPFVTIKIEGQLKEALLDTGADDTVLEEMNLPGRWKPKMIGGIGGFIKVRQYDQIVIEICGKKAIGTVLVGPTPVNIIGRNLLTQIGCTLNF

[10] = tested on: Human immunodeficiency virus 1; experiment: Antiviral activity against wild type HIV1 3B infected in human MT2 cells assessed as fold resistance after 11 months incubation; assay type: functional
[11] = tested on: Human immunodeficiency virus 1; experiment: Antiviral activity against wild type HIV1 3B infected in human MT2 cells assessed as virus-induced cytopathic effect after 5 days by XTT assay relative to in the presence of 50% pooled human serum; assay type: functional
[12] = Clearance in Beagle dog at 2 mg/kg, iv over 30 mins; assay type: ADME, organism-based, Canis lupus familiaris; design: dose 2 mg/kg, route intravenous; details: in vivo
[13] = Oral bioavailability in Beagle dog at 10 mg/kg; assay type: ADME, organism-based, Canis lupus familiaris; details: in vivo
[14] = Oral bioavailability in Beagle dog at 10 mg/kg in presence of 10 mg/kg COBI; assay type: ADME, organism-based, Canis lupus familiaris; details: in vivo
[15] = Intrinsic clearance in human liver microsomes; assay type: ADME; details: read-out: CLH
[16] = (§1) Intrinsic clearance in human liver microsomes in presence of 1 uM RTV; assay type: ADME; details: liver microsomes, with RTV 1 uM, read-out: CLH
[17] = (§2) Intrinsic clearance in human liver microsomes in presence of 1 uM COBI; assay type: ADME; details: liver microsomes, with COBI 1 uM, read-out: CLH
Liver microsome [18] = experiment: as §1; assay type: ADME; details: microsomes
Liver microsome [19] = experiment: as §2; assay type: ADME; details: microsomes

Structure (SMILES) | CC50 at 120 h [1] | CC50 at 120 h [2] | EC50 [3] | Ratio EC50 [4] | Ratio EC50 [5] | Ki (Protease) | Ratio EC50 [11] | further results
CC(C)(C)NC(=O)[C@@H]1C[C@@H]2CCCC[C@@H]2CN1C[C@@H](O)[C@H](Cc1ccccc1)NC(=O)[C@H](CC(N)=O)NC(=O)c1ccc2ccccc2n1 | 32300 nM | 12400 nM | 13.6 nM |  |  |  |  | 
CC(C)CN(C[C@@H](O)[C@H](Cc1ccccc1)NC(=O)O[C@H]1CCOC1)S(=O)(=O)c1ccc(N)cc1 | > 100000 nM | 98400 nM | 24 nM | 16.3 | 159 | 0.345 nM |  | Ratio EC50 [6]: 0.9; Ratio EC50 [7]: 5.9; Ratio EC50 [8]: 0.8; Ratio EC50 [9]: 20
CCOP(=O)(COc1ccc(C[C@H](NC(=O)O[C@H]2CO[C@H]3OCC[C@H]32)[C@H](O)CN(CC(C)C)S(=O)(=O)c2ccc(OC)cc2)cc1)OCC | > 100000 nM | 61300 nM | 3.5 nM | 0.7 | 2.4 | 0.0081 nM | 2.7 | fold change (FC) [10]: 15; Ratio EC50 [6]: 0.1; Ratio EC50 [7]: 0.9; Ratio EC50 [8]: 0.2; Ratio EC50 [9]: 0.6; clearance [12]: 35.5 mL/min/kg; bioavailability [13]: 6.9%; bioavailability [14]: 100%; microsomal CLint [15]: 9.2 µL/min/mg; microsomal CLint [16]: 2.6 µL/min/mg; microsomal CLint [17]: 1 µL/min/mg
CC(C)CN(C[C@@H](O)[C@H](Cc1ccccc1)NC(=O)O[C@H]1CO[C@H]2OCC[C@H]21)S(=O)(=O)c1ccc(N)cc1 | > 100000 nM | 95500 nM | 2.3 nM |  |  |  |  | microsomal CLint [15]: 30.9 µL/min/mg; microsomal CLint [16]: 1.6 µL/min/mg; microsomal CLint [17]: 0.9 µL/min/mg
COc1ccc(S(=O)(=O)N(CC(C)C)C[C@@H](O)[C@H](Cc2ccc(O)cc2)NC(=O)O[C@H]2CO[C@H]3OCC[C@H]32)cc1 |  |  | 6.9 nM | 0.8 | 5.1 | 0.0053 nM |  | 
COc1ccc(C[C@H](NC(=O)O[C@H]2CO[C@H]3OCC[C@H]32)[C@H](O)CN(CC(C)C)S(=O)(=O)c2ccc(OC)cc2)cc1 |  |  | 0.06 nM | 17 | 157 |  |  | 
COC(=O)c1ccc(C[C@H](NC(=O)O[C@H]2CO[C@H]3OCC[C@H]32)[C@H](O)CN(CC(C)C)S(=O)(=O)c2ccc(OC)cc2)cc1 |  |  | 0.3 nM | 1.2 | 11 | 0.0054 nM |  | 
CCOP(=O)(OCC)c1ccc(C[C@H](NC(=O)O[C@H]2CO[C@H]3OCC[C@H]32)[C@H](O)CN(CC(C)C)S(=O)(=O)c2ccc(OC)cc2)cc1 |  |  | 7.5 nM | 0.5 | 4.5 | 0.0012 nM |  | 
CCOP(=O)(Cc1ccc(C[C@H](NC(=O)O[C@H]2CO[C@H]3OCC[C@H]32)[C@H](O)CN(CC(C)C)S(=O)(=O)c2ccc(OC)cc2)cc1)OCC |  |  | 5.9 nM | 5.8 | 36 | 0.0084 nM | 2.4 | 
CCOP(=O)(CCc1ccc(C[C@H](NC(=O)O[C@H]2CO[C@H]3OCC[C@H]32)[C@H](O)CN(CC(C)C)S(=O)(=O)c2ccc(OC)cc2)cc1)OCC |  |  | 2.1 nM | 0.4 | 3.1 | 0.0091 nM | 2.6 | 
COc1ccc(S(=O)(=O)N(CC(C)C)C[C@@H](O)[C@H](Cc2ccc(OCP(=O)(OC)OC)cc2)NC(=O)O[C@H]2CO[C@H]3OCC[C@H]32)cc1 |  |  | 18.8 nM | 0.3 |  | 0.0181 nM |  | 
COc1ccc(S(=O)(=O)N(CC(C)C)C[C@@H](O)[C@H](Cc2ccc(OCP(=O)(OC(C)C)OC(C)C)cc2)NC(=O)O[C@H]2CO[C@H]3OCC[C@H]32)cc1 |  |  | 1.9 nM | 1.3 | 6 | 0.0057 nM | 3.6 | 
COc1ccc(S(=O)(=O)N(CC(C)C)C[C@@H](O)[C@H](Cc2ccccc2)NC(=O)O[C@H]2CO[C@H]3OCC[C@H]32)cc1 |  |  | 0.35 nM |  |  |  |  | 
CC(C)(C)NC(=O)[C@@H]1CN(Cc2cccnc2)CCN1C[C@@H](O)C[C@@H](Cc1ccccc1)C(=O)N[C@H]1c2ccccc2C[C@H]1O | > 100000 nM | 74700 nM | 12.4 nM |  |  |  |  | 
Cc1c(O)cccc1C(=O)N[C@@H](CSc1ccccc1)[C@H](O)CN1C[C@H]2CCCC[C@H]2C[C@H]1C(=O)NC(C)(C)C | 19100 nM | 7400 nM | 4.9 nM | >92 | 16.5 | 0.732 nM | 19.2 | Ratio EC50 [6]: 25.4; Ratio EC50 [7]: 26; Ratio EC50 [8]: >68; Ratio EC50 [9]: 30.6
COC(=O)N[C@H](C(=O)N[C@@H](Cc1ccccc1)[C@@H](O)CN(Cc1ccc(-c2ccccn2)cc1)NC(=O)[C@@H](NC(=O)OC)C(C)(C)C)C(C)(C)C [ATAZANAVIR] | 79800 nM | 26500 nM | 2.2 nM | >100 | 1.9 | 0.0479 nM | 2.4 | Ratio EC50 [6]: 127; Ratio EC50 [7]: 43.9; Ratio EC50 [8]: 141; Ratio EC50 [9]: 102; microsomal CLint [15]: 23 µL/min/mg; CLH (Liver microsome [18]): 1.4 µL/min/mg; CLH (Liver microsome [19]): 0.9 µL/min/mg
Cc1cccc(C)c1OCC(=O)N[C@@H](Cc1ccccc1)[C@@H](O)C[C@H](Cc1ccccc1)NC(=O)[C@H](C(C)C)N1CCCNC1=O [LOPINAVIR] | 67900 nM | 27800 nM | 5.6 nM |  |  |  |  | microsomal CLint [15]: 544 µL/min/mg; microsomal CLint [16]: 1.6 µL/min/mg; microsomal CLint [17]: 2.7 µL/min/mg
CC(C)c1nc(CN(C)C(=O)N[C@H](C(=O)N[C@@H](Cc2ccccc2)C[C@H](O)[C@H](Cc2ccccc2)NC(=O)OCc2cncs2)C(C)C)cs1 [RITONAVIR] |  |  | 32.2 nM |  |  |  |  | 

Source: ChEMBL document CHEMBL3217662 (Medchemcomm, 2011)
